Data set [1] deals with D24 human melanoma cells. The data set is described as follows: MTT cell viability assay. Conditions: 24 h exposure. Format: cell-based. The protocol: (§1) Cells were seeded into the 96-well cell culture plates in 100 μl of complete culture medium at the initial density of 2x10^4 (cells/ml). Cells were incubated under 5 % CO2 at 37 °C for 24 hours for adhering to the wells and medium was then replaced with 100 μl of fresh medium containing excipient solution at the required final concentration. Each concentration was tested in minimum of 5 replicates and control cells were exposed to the culture medium only.
(§2) After cell incubation for 24 h, the excipient-containing medium was removed, and 100 μl of MTT in PBS (5 mg/ml) diluted 1:10 in medium was then added in the dark. Plates were further incubated for 2-3 h, after which time the medium was removed and the purple formazan product was dissolved by adding 200 μl of DMSO to each well. Plates were then placed in a shaker for 5 min at room temperature and the absorbance of the resulting solutions was measured at 570 nm using a microplate reader (Multiskan™ FC Microplate Photometer). The effect of each treatment was calculated as the percentage of tetrazolium salt reduction by viable cells against the negative control (cells treated with culture medium only).
(§3) To assess the excipients' cytotoxicity, the dose-response effect of each excipient was measured against the cell lines. The cytotoxicity value for each concentration of the excipients was expressed as percentage of viability against the untreated control wells (the optical density of untreated cells was set at 100 % viability) to construct dose-response curves.
(§4) All IC50 values were expressed as µg/ml. The percentage viability was calculated as follows: […]
Background: Tetrazolium dyes change colour on reduction, which living cells bring about.

Data set [2] concerns HaCaT human keratinocytes. The data set is described as follows: MTT cell viability assay. Format: cell-based. Particulars: 24 h exposure. As to the method: as §1, §2, §3, §4
The subject of data set [3] is WM1366 human melanoma cells. The data set is described as follows: MTT cell viability assay. Format: cell-based. Conditions: 24 h exposure. As to the method: as §1, §2, §3, §4
Data set [4] has as its system WM164 human melanoma cells. The data set is described as follows: MTT cell viability assay. Conditions: 24 h exposure. Format: cell-based. The protocol: as §1, §2, §3, §4
For data set [5], the system named is primary skin fibroblasts (FB). The data set is described as follows: MTT cell viability assay. Format: cell-based, human. Conditions: 24 h exposure. As to the method: as §1, §2, §3, §4
For data set [6], the system named is D24 human melanoma cells. The data set is described as follows: Crystal violet (CV) cell viability assay. Format: cell-based. Conditions: 24 h exposure. The protocol:
(§5) Cells were seeded into the 96-well cell culture plates in 100 μl of complete culture medium at the initial density of 2x10^4 (cells/ml). Cells were incubated under 5 % CO2 at 37 °C for 24 hours for adhering to the wells and medium was then replaced with 100 μl of fresh medium containing excipient solution at the required final concentration. Each concentration was tested in minimum of 5 replicates and control cells were exposed to the culture medium only. Fixed cells were stained with crystal violet dye solution to screen cell viability under treatment conditions. Cells are fixed by 4 % (v/v) paraformaldehyde in PBS for 10 minutes. Crystal violet assay of 0.05 % (v/v) is prepared by 1:4 dilution of the crystal violet stock solution (v/v) in 4 % (v/v) paraformaldehyde. The fixed cells were washed twice with PBS and covered with 250 µl crystal violet working solution. The plates were placed on a bench rocker with medium frequency (20 oscillations per minute) at room temperature for 20 minutes. The plates were emptied and washed under indirect stream of tap water for three times and inverted on filter paper. The plates were taped gently on the paper to remove any remaining liquid and air dried with no lid for minimum of 2 hr at room temperature. After the plates were photographed, blue dye was dissolved in DMSO and the optical density of each well was measured at 570 nm (OD570) with a plate reader (Multiskan™ FC Microplate Photometer). The effect of each treatment was calculated as the percentage of crystal viable staining of surviving attached cells, against the negative control (cells treated with culture medium only). To assess the excipients' cytotoxicity, the dose-response effect of each excipient was measured against the cell lines. The cytotoxicity value for each concentration of the excipients was expressed as percentage of viability against the untreated control wells (the optical density of untreated cells was set at 100 % viability) to construct dose-response curves. […] All IC50 values were expressed as µg/ml. The percentage viability was calculated as follows: […]

Data set [7] concerns HaCaT human keratinocytes. The data set is described as follows: Crystal violet (CV) cell viability assay. Format: cell-based. Particulars: 24 h exposure. The protocol: as §5
In data set [8] the test system is WM1366 human melanoma cells. The data set is described as follows: Crystal violet (CV) cell viability assay. Format: cell-based. Conditions: 24 h exposure. The protocol:
as §5

Data set [9] concerns WM164 human melanoma cells. The data set is described as follows: Crystal violet (CV) cell viability assay. Format: cell-based. Conditions: 24 h exposure. The protocol:
as §5

The test system of data set [10] is primary skin fibroblasts (FB). The data set is described as follows: Crystal violet (CV) cell viability assay. Format: cell-based, human. Conditions: 24 h exposure. The protocol:
as §5

The subject of data set [11] is human cell lines (WM164, WM1366, D24, HaCaT, FB). The data set is described as follows: MTT and CV cytotoxicity, statements over all tested cell lines. Format: cell-based. Particulars: for Irritancy ranking: rank by MTT and CV IC50 over all cell lines, 1 = most cytotoxic. As to the method: as §1, §2
Fixed cells were stained with crystal violet dye solution to screen cell viability under treatment conditions. Cells are fixed by 4 % (v/v) paraformaldehyde in PBS for 10 minutes. Crystal violet assay of 0.05 % (v/v) is prepared by 1:4 dilution of the crystal violet stock solution (v/v) in 4 % (v/v) paraformaldehyde. The fixed cells were washed twice with PBS and covered with 250 µl crystal violet working solution. The plates were placed on a bench rocker with medium frequency (20 oscillations per minute) at room temperature for 20 minutes. The plates were emptied and washed under indirect stream of tap water for three times and inverted on filter paper. The plates were taped gently on the paper to remove any remaining liquid and air dried with no lid for minimum of 2 hr at room temperature. After the plates were photographed, blue dye was dissolved in DMSO and the optical density of each well was measured at 570 nm (OD570) with a plate reader (Multiskan™ FC Microplate Photometer). The effect of each treatment was calculated as the percentage of crystal viable staining of surviving attached cells, against the negative control (cells treated with culture medium only).
as §3
The cytotoxicity of the excipients was expressed in terms of an IC50 values (concentration causing 50 % death of the cell population) (Goldberg and Frazier, 1989[37]). […] All IC50 values were expressed as µg/ml. The percentage viability was calculated as follows: […]

The subject of data set [12] is human leukemic cells (CCRF). Set-up: method as in Duncan et al., 1994[25]. Particulars: ref Duncan et al., 1994[25]; cited from earlier work.
For data set [13] the following is noted: Table 1, physicochemical information of the excipients, source not given; cited from earlier work.

Entries after “also recorded” stand apart in the source; their conditions may differ.

Turning to “Propylene glycol dicaprylocaprate [Labrafac®]”, the “IC50 (μg/ml) [Mean, Range] D24, MTT” value in the data set on D24 human melanoma cells [1] is given as “> Max Conc”. Moreover, in data set [2], the “IC50 (μg/ml) [Mean, Range] HaCaT, MTT” value is reported as “> Max Conc”. Further, the “IC50 (μg/ml) [Mean, Range] WM1366, MTT” value in data set [3] is “> Max Conc”. In addition, the “IC50 (μg/ml) [Mean, Range] WM164, MTT” value in [4] is given as “> Max Conc”. Moreover, in [5], the “IC50 (μg/ml) [Mean, Range] FB, MTT” value is on record as “> Max Conc”. Moreover, in the data set on D24 human melanoma cells [6], the “IC50 (μg/ml) [Mean, Range] D24, CV” value is “> Max Conc”. Besides, the “IC50 (μg/ml) [Mean, Range] HaCaT, CV” value in [7] is reported as “> Max Conc”. Also, in data set [8], the “IC50 (μg/ml) [Mean, Range] WM1366, CV” value was “> Max Conc”. In addition, the “IC50 (μg/ml) [Mean, Range] WM164, CV” value in [9] is “> Max Conc”. The “IC50 (μg/ml) [Mean, Range] FB, CV” value in data set [10] is “> Max Conc”. Besides, the “Cytotoxicity (result in words)” value in [11] (all cell lines, at the applied concentrations, 24 h) is given as “non-toxic; also recorded: did not induce any reduction in cell viability; also recorded: caused no toxicity to any cell lines; also recorded: No damaging effects on cell growth”. The Irritancy ranking in data set [11] stood at 5.
The IC50 is the concentration at which inhibition is half-maximal. A low value points to greater potency in that assay. For the substance Triton X-100 [reference compound], the “IC50 (μg/ml) [Mean, Range] D24, MTT” value in the data set with D24 human melanoma cells [1] was 0.0429 (0.04 to 0.05) μg/ml. In addition, the “IC50 (μg/ml) [Mean, Range] HaCaT, MTT” value in [2] is reported as 0.0417 (0.04 to 0.043) μg/ml. For the same substance, in [3], the “IC50 (μg/ml) [Mean, Range] WM1366, MTT” value worked out at 0.083 µg/mL. The “IC50 (μg/ml) [Mean, Range] WM164, MTT” value in data set [4] is listed as 0.0042 (0.002 to 0.01) μg/ml. Also, the “IC50 (μg/ml) [Mean, Range] FB, MTT” value in data set [5] is on record as 0.1034 (0.08 to 0.16) μg/ml. In addition, the “IC50 (μg/ml) [Mean, Range] D24, CV” value in the data set with D24 human melanoma cells [6] is 0.043 (0.04 to 0.045) μg/ml. Further, in data set [7], the “IC50 (μg/ml) [Mean, Range] HaCaT, CV” value is given as 0.044 (0.042 to 0.047) μg/ml. In data set [8], the “IC50 (μg/ml) [Mean, Range] WM1366, CV” value came to 0.089 µg/mL. Moreover, the “IC50 (μg/ml) [Mean, Range] WM164, CV” value in data set [9] was determined as 0.0265 µg/mL. Moreover, the “IC50 (μg/ml) [Mean, Range] FB, CV” value in [10] was 0.094 (0.08 to 0.13) μg/ml. Further, in data set [11] (all cell lines), the “Concentration causing significant inhibition of cell growth” value stood at 0.004 µg/mL. In addition, in data set [11] (over the tested cell lines, this study), the “IC50” value is less than 0.08 µg/mL. The substance also registered an Irritancy ranking in data set [11] of 1. Also, in data set [12], the “IC50, MTT assay” value is 1 µg/mL. The HLB in [13] is recorded as 13.5.

The values are drawn from paper PMC10776879, “In vitro screening of topical formulation excipients for epithelial toxicity in cancerous and non-cancerous cell lines” (EXCLI Journal, 2023).
